Source: ChEMBL document CHEMBL2007661, “Compounds: GSK PKIS; Assays: UNC Frye lab” (2012)
Values joined by “and” are separate entries in the source; they are usually repeats but may differ in a detail not shown here. Identical values can stand only once.

How the values were obtained:
[1] = target: T1, Inhibitor of nuclear factor kappa-B kinase subunit epsilon (Homo sapiens) (UniProt Q14164); settings: at 1 µM
T1 sequence (whole entry): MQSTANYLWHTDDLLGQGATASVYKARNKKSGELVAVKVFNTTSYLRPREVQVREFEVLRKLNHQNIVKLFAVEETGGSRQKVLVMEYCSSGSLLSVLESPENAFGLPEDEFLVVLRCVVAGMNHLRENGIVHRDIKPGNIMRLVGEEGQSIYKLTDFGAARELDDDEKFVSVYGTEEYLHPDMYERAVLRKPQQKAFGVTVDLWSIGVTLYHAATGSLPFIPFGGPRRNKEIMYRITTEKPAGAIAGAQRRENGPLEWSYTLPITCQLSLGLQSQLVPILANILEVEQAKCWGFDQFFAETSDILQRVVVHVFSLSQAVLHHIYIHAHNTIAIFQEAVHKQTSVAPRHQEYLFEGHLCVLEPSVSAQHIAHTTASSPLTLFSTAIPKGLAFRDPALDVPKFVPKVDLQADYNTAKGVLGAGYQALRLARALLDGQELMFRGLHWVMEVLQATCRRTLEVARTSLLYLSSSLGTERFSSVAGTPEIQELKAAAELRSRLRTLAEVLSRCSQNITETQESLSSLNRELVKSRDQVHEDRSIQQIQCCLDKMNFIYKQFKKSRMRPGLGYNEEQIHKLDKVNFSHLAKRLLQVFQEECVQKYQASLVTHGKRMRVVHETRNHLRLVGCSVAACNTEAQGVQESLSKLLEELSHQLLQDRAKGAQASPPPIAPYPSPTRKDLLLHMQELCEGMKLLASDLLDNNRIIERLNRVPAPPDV

[2] = target: T2, Inhibitor of nuclear factor kappa-B kinase subunit beta (Homo sapiens) (UniProt O14920); settings: at 1 µM
T2 sequence (whole entry): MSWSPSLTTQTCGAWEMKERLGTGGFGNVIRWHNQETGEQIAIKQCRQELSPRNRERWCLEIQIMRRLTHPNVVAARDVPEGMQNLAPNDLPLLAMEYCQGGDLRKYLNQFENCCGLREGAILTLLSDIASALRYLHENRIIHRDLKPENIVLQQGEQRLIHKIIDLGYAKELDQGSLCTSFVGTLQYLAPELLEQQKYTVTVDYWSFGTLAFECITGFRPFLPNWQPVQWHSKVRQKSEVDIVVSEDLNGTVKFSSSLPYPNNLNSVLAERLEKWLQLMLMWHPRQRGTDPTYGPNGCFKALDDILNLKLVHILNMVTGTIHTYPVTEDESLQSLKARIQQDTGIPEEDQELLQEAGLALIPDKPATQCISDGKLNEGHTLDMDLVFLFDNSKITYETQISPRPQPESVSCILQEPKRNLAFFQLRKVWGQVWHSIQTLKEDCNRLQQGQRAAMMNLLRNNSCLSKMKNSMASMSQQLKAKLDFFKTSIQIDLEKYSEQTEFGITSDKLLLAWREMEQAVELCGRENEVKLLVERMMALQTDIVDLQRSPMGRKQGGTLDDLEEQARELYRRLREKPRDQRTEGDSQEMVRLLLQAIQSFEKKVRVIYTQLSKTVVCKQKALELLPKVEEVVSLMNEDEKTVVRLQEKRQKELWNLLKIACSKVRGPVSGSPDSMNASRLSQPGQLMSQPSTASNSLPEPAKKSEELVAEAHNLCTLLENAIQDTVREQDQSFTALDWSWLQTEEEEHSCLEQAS

[3] = target: T3, Tyrosine-protein kinase Mer (Homo sapiens) (UniProt Q12866); settings: at 10 µM
T3 sequence (whole entry): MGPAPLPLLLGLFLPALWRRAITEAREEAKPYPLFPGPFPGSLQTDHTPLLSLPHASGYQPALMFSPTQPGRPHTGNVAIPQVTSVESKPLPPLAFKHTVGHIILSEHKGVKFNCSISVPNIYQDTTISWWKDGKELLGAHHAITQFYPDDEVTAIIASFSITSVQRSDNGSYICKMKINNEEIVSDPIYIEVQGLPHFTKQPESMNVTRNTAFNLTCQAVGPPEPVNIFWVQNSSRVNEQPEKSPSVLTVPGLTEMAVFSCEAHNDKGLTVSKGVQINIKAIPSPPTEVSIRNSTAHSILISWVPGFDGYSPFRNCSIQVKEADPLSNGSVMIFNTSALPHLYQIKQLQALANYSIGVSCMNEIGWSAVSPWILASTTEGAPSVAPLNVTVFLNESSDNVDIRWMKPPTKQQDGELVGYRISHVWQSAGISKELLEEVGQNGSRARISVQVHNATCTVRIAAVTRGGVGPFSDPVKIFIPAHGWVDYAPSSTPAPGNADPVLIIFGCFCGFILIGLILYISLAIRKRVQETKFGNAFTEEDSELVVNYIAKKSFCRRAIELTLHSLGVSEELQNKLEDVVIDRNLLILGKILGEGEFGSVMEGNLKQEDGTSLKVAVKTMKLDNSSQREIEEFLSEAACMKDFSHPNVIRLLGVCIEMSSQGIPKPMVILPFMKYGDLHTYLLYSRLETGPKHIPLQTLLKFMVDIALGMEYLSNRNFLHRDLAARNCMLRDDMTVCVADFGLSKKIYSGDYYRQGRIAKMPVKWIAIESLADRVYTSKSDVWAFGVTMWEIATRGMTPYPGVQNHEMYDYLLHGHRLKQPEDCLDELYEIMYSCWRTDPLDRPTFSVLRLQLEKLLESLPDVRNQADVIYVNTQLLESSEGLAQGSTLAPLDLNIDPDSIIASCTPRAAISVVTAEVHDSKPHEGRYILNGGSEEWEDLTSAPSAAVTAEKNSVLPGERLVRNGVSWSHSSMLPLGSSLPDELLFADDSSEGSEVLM

| SMILES | inhibition [1] | inhibition [2] | inhibition [3] [%] |
| --- | --- | --- | --- |
| COc1cc(N2CCN(C(C)C)CC2)ccc1Nc1nc(Nc2cccc3ncccc23)c2cc[nH]c2n1 | 2% and 0% | -2% and -4% | -5 |
| CN(C)C(=O)O[C@H]1CN[C@H](C#Cc2cc3ncnc(Nc4ccc(OCc5cccc(F)c5)c(Cl)c4)c3s2)C1 | 0% and 2% | 4% and -2% | 2 |
| c1ccc(-c2nc3n(c2-c2ccc4c(c2)OCO4)CCC3)nc1 | 1% and 2% | -5% and -3% | -1 |
| COc1cccc(-n2nc(C)c3c(N/N=C(\C)c4ccncc4)ncnc32)c1 | 18% and 3% | -3% | -8 |
| Nc1nccc(-c2c(-c3ccc(F)cc3)nn3cc(C(F)(F)F)ccc23)n1 | 2% | -2% and -4% | 88 |
| CCN1CCC(CC(=O)Nc2n[nH]c3nc(-c4cccs4)c(Br)cc23)CC1 | 2% and 1% | -4% and -3% | -2 |
| CNC(=O)c1ncccc1Nc1nc(Nc2cc3c(cc2OC)CCCN3C(=O)CN(C)C)nc2[nH]ccc12 | 0% and 5% | -5% and -3% | 77 |
| Cc1cc(O)cc(C)c1/C=C/c1cncc(C(=O)N(C)C)c1 | 3% and 1% | 3% and 2% | -4 |
| COc1cc(Nc2ncc3c(C)nc(-c4cccc(C(F)(F)F)c4)n3n2)cc(OC)c1OC | 29% and 33% | -4% and -5% | 6 |
| CCn1c(-c2nonc2N)nc2c(N3CCCC3)nccc21 | -3% and -4% | -6% and -5% | -3 |
| COC(=O)Nc1nc2cc(Oc3cccc(NC(=O)Nc4cc(C(F)(F)F)ccc4F)c3)ccc2[nH]1 | -1% and -2% | 0% and 5% | -10 |
| CC1(C)CC(n2cnc(-c3ccc(F)cc3)c2-c2ccnc(N)n2)CC(C)(C)N1 | -1% and 4% | -3% and -4% | -5 |
| COc1cc2c(cc1Nc1nc(N3CCc4ccccc43)c3cc[nH]c3n1)N(C(=O)CN(C)C)CC2 | 21% and 19% | -6% | 3 |
| Nc1nc(-c2ccc3c(c2)C(=Cc2cc(Br)c(O)c(Br)c2)C(=O)N3)cs1 | 8% and 6% | -8% | -8 |
| Cc1cccc(-c2n[nH]cc2-c2ccc3ncccc3n2)n1 | -4% | -4% and -1% | -6 |
| O=C(Nc1ccc(Oc2ccc3[nH]c(NC(=O)c4ccco4)nc3c2)cc1)Nc1cc(C(F)(F)F)ccc1F | 1% and 0% | 0% and 1% | 27 |
| COc1cc(C)c(N(C)C(=O)CN(C)C)cc1Nc1nc(Nc2cccc(F)c2C(N)=O)c2cc[nH]c2n1 | -3% and -2% | -3% and -6% | 50 |
| COc1cc2ncn(-c3cc(OCc4ccccc4C(F)(F)F)c(C(=O)N(C)C)s3)c2cc1OC | -1% | -3% and -1% | -10 |
| COc1cc(C)c(NC(=O)CN(C)C)cc1Nc1nc(Nc2cccc(F)c2C(N)=O)c2cc[nH]c2n1 | 9% and 8% | -1% and 18% | 52 |

The next lines start with the values.

| inhibition [1] | inhibition [2] | inhibition [3] [%] | SMILES |
| --- | --- | --- | --- |
| 0% | -6% | 47 | CS(=O)(=O)Nc1cccc(-c2ccc3c(NC(=O)C4CC4)n[nH]c3c2)c1 |
| 2% and 1% | -1% and -4% | 101 | NC(=O)c1sc(-n2cnc3ccc(C(F)(F)F)cc32)cc1OCc1ccccc1Br |
| -1% and 0% | -2% and -6% | 3 | COc1ccc(C2=C(N3CCc4ccccc43)C(=O)NC2=O)cc1 |
| -4% and 0% | -6% and -3% | -5 | Fc1cccc(COc2ccc(Nc3ncncc3C#Cc3ccccc3)cc2Cl)c1 |
| 2% and 1% | -2% and 0% | 2 | COC(=O)Nc1nc2ccc(Oc3ccc(NC(=O)Nc4cccc(Cl)c4)cc3)cc2[nH]1 |
| 1% | 3% and 2% | -6 | O=C1NC(=O)C(N2CCc3ccccc32)=C1c1ccc(Cl)cc1 |
| 0% and -2% | -4% and -7% | -5 | Nc1nc(-c2ccccn2)c(-c2ccc3ncccc3n2)s1 |
| 0% and -2% | -3% and 3% | 94 | COC(=O)Nc1nc2cc(Oc3ccc(NC(=O)Nc4cccc(C(=O)O)c4)cc3)ccc2[nH]1 |
| 0% and -2% | -3% and 2% | -1 | CN1CCC(n2cnc(-c3ccc(F)cc3)c2-c2ccnc(Nc3ccccc3)n2)CC1 |
| 2% | -2% and 4% | -8 | Cc1nn(C)c2cc(N(C)c3ccnc(Nc4cccc(S(N)(=O)=O)c4)n3)ccc12 |
| -1% and -2% | -6% and -5% | 0 | COC(=O)Nc1nc2ccc(S(=O)(=O)c3ccc(NC(=O)Nc4cc(C(F)(F)F)ccc4F)cc3)cc2[nH]1 |
| -1% | -2% and -3% | -3 | CS(=O)(=O)CCNCc1ccc(-c2ccc3ncnc(Nc4ccc(OCc5ccccc5)cc4)c3c2)o1 |
| 1% and 2% | -4% and -7% | 15 | O=C(O[C@H]1CN[C@H](C#Cc2cc3ncnc(Nc4ccc5c(cnn5Cc5ccccc5)c4)c3s2)C1)N1CCOCC1 |
| -1% and -3% | 5% and 2% | 1 | NC(=O)c1ccc(-c2nc(-c3ccccn3)c(-c3ccc4c(c3)OCO4)[nH]2)cc1 |
| -2% | -4% and -3% | -6 | OCc1ccc(-c2nc(-c3ccccn3)c(-c3ccc4c(c3)OCO4)[nH]2)cc1 |
| -2% and -1% | -5% and -3% | -2 | CS(=O)(=O)CCNCc1ccc(-c2ccc3ncnc(Nc4ccc(OCc5ccccc5)c(C(F)(F)F)c4)c3c2)o1 |
| 77% and 76% | -2% | 9 | CC(C)(CO)CNC(=O)c1ccc2c(c1)/C(=N/Nc1ccc(S(N)(=O)=O)cc1)C(=O)N2 |
| -2% and -1% | -1% and -4% | -2 | CS(=O)(=O)Nc1ccc(-c2cc(-c3ccccc3)cc(C(N)=O)c2N)cc1 |
| 6% and 5% | -2% and 2% | 78 | O=C(Nc1ccc(Oc2ccc3[nH]c(NC(=O)c4ccccc4)nc3c2)cc1)Nc1cc(C(F)(F)F)ccc1F |
